Marks after values point to notes of the source that are not given here.
Assays:
Assay type in all cases: physicochemical
[1] = Micronisation: particle size distribution and polymorphic integrity; details: for polymorphic integrity during micronisation (XRPD): XRPD trace after milling compared with before; for particle size distribution D10 / particle size distribution D50 / particle size distribution D90: after micronisation
Text: Liquid suspension and aerosol formulations (whether pressurised or unpressurised) will typically contain the compound of the invention in particulate form, for example with a D50 of 0.5-10 μm, suitably around 1-5 μm, such as 1-2 μm. Suitably, the compound of the invention in particulate form has a D10 of 0.2 to 1 μm, such as 0.2 to 0.5 μm. Suitably, the compound of the invention in particulate form has a D90 of 2 to 6 μm such as 3 to 4 μm. The particulate form of the compound may, for example, be a micronised form. Micronisation may be performed using a jet mill such as those manufactured by Hosokawa Alpine. The resultant particle size distribution may be measured using laser diffraction (e.g. with a Malvern Mastersizer 2000S instrument). Particle size distributions may be represented using D10, D50 and D90 values. The Dso median value of particle size distributions is defined as the particle size in microns that divides the distribution in half. The measurement derived from laser diffraction is more accurately described as a volume distribution and consequently the D50 value obtained using this procedure is more meaningfully referred to as a Dv50 value (median for a volume distribution). As used herein Dv values refer to particle size distributions measured using laser diffraction. Similarly, D10 and D90 values, used in the context of laser diffraction, are taken to mean Dv10 and Dv90 values and refer to the particle size whereby 10% of the distribution lies below the D10 value, and 90% of the distribution lies below the D90 value, respectively.
A sample of crude input material (100 g, Form 3) was suspended in a mixture of 5% water in acetone (1.00 L), a seed of Form 1 (100 mg) was added and the mixture was stirred at RT overnight. The suspension was filtered and the filter cake was washed with a mixture of 5% water in acetone (20 mL) and the solids dried at 40° C. to provide polymorphic Form 1 as a white powder (85.5 g, 85.5% recovery, 98.7% purity by HPLC) as determined from its DSC trace (FIG. 9). Micronisation of the product so obtained provided a powder for which the particle size distribution, expressed in D values, was as follows: […].
Micronisation of the product so obtained provided a powder for which the particle size distribution, expressed in D values, was as follows: […]. It will be appreciated by those skilled in the art that these characteristics are suitable for a product intended for administration by inhalation. […] The Form 2 polymorph is therefore susceptible to and stable towards the micronisation process required to derive a material with the properties necessary for its intended purpose.

[2] = Fate of Form 2 slurried in single solvents, acetone, water and acetone/water mixtures, XRPD
Protocol: In order to determine the influence of water in determining the output from such conditioning experiments, the behaviour of the Form 2 polymorph was examined in nominally dry organic media and also in monophasic, aqueous mixtures with water miscible solvents.
The same result was also obtained when the conditioning medium was either neat acetone (Table 9, Entries 1 and 6) or water alone (Table 9, Entries 5 and 10). However, in acetone-water mixtures at 50° C. over 24 hr there was clear evidence that in two instances Form 2 had been transformed into Form 1 (Table 9, Entries 7 and 9).

[3] = Fate of Form 2 slurried in MEK/water mixtures, XRPD; details: MEK, 25 °C, 24 hours
Protocol: (Table 12). It was observed that Form 2 integrity was maintained for at least 24 hours at the lower temperature until the water content exceeded 6%, despite an increase in solubility of Compound I from 19 to 30 mg/ml (data not shown).

[4] = as above; details: MEK, 50 °C, 24 hour time point
[5] = Fate of Form 2 slurried in 1,4-dioxane/water mixtures, XRPD; details: 1,4-dioxane
Protocol: In the presence of 10% water the Form 1 polymorph is evident in the slurry mixture within an hour at 25° C. […] This ternary system behaved similarly at 50° C. However, at the higher temperature of 65° C. the rate of turnover is increased such that Form 1 was generated after 3 hr. Consistent with the data obtained from the experiments described above, increasing the proportion of water to 80% in this system was sufficient to halt the polymorphic interconversion at 25° C., 50° C. and even at 65° C.

SMILES: Cc1cc(N2CCN(c3ccc(C(=O)Nc4ccc(F)cc4)cc3)CC2)ccc1OC[C@@H]1CO[C@@](Cn2cncn2)(c2ccc(F)cc2F)C1 [Form 1, 4-(4-(4-(((3R,5R)-5-((1H-1,2,4-triazol-1-yl)methyl)-5-(2,4-difluorophenyl)tetrahydrofuran-3-yl)methoxy)-3-methylphenyl)piperazin-1-yl)-N-(4-fluorophenyl)benzamide]
- polymorphic integrity during micronisation (XRPD) [1]: polymorphic integrity was retained
- particle size distribution D10 [1]: 0.75 µm
- particle size distribution D50 [1]: 1.59 µm
- particle size distribution D90 [1]: 3.23 µm

SMILES: Cc1cc(N2CCN(c3ccc(C(=O)Nc4ccc(F)cc4)cc3)CC2)ccc1OC[C@@H]1CO[C@@](Cn2cncn2)(c2ccc(F)cc2F)C1 [Form 2, 4-(4-(4-(((3R,5R)-5-((1H-1,2,4-triazol-1-yl)methyl)-5-(2,4-difluorophenyl)tetrahydrofuran-3-yl)methoxy)-3-methylphenyl)piperazin-1-yl)-N-(4-fluorophenyl)benzamide]
- polymorphic integrity during micronisation (XRPD) [1]: no significant change
- particle size distribution D10 [1]: 0.42 µm
- particle size distribution D50 [1]: 1.24 µm
- particle size distribution D90 [1]: 3.57 µm
- Polymorphic Form by XRPD ([2]; acetone, water 0 vol %, 25 °C, 1 and 4 hr): 2
- Polymorphic Form by XRPD ([2]; acetone, water 0 vol %, 25 °C, 24 hr): 2
- Polymorphic Form by XRPD ([2]; acetone, water 0 vol %, 50 °C, 1 and 4 hr): 2
- Polymorphic Form by XRPD ([2]; acetone, water 0 vol %, 50 °C, 24 hr): 2
- Polymorphic Form by XRPD ([2]; acetone/water, water 10 vol %, 25 °C, 1 and 4 hr): 2
- Polymorphic Form by XRPD ([2]; acetone/water, water 10 vol %, 25 °C, 24 hr): 2
- Polymorphic Form by XRPD ([2]; acetone/water, water 10 vol %, 50 °C, 1 and 4 hr): 2
- Polymorphic Form by XRPD ([2]; acetone/water, water 10 vol %, 50 °C, 24 hr): 1
- Polymorphic Form by XRPD ([2]; acetone/water, water 20 vol %, 25 °C, 1 and 4 hr): 2
- Polymorphic Form by XRPD ([2]; acetone/water, water 20 vol %, 25 °C, 24 hr): 2
- Polymorphic Form by XRPD ([2]; acetone/water, water 20 vol %, 50 °C, 1 and 4 hr): 2
- Polymorphic Form by XRPD ([2]; acetone/water, water 20 vol %, 50 °C, 24 hr): 2
- Polymorphic Form by XRPD ([2]; acetone/water, water 40 vol %, 25 °C, 1 and 4 hr): 2
- Polymorphic Form by XRPD ([2]; acetone/water, water 40 vol %, 25 °C, 24 hr): 2
- Polymorphic Form by XRPD ([2]; acetone/water, water 40 vol %, 50 °C, 1 and 4 hr): 2
- Polymorphic Form by XRPD ([2]; acetone/water, water 40 vol %, 50 °C, 24 hr): 1
- change in crystal structure on suspension in sole solvent ([2]; heptane, TBME, toluene or cyclohexane as sole solvent, 25 or 50 °C, 24 hr): no perceptible change in crystal structure
- Polymorphic Form by XRPD ([2]; water 100 vol %, 25 °C, 1 and 4 hr): 2
- Polymorphic Form by XRPD ([2]; water 100 vol %, 25 °C, 24 hr): 2
- Polymorphic Form by XRPD ([2]; water 100 vol %, 50 °C, 1 and 4 hr): 2
- Polymorphic Form by XRPD ([2]; water 100 vol %, 50 °C, 24 hr): 2
- Polymorphic Form by XRPD ([3]; water 1 % vol): 2
- Polymorphic Form by XRPD ([3]; water 2 % vol): 2
- Polymorphic Form by XRPD ([3]; water 4 % vol): 2
- Polymorphic Form by XRPD ([3]; water 6 % vol): 2
- Polymorphic Form by XRPD ([3]; water 8 % vol): 1
- Polymorphic Form by XRPD ([4]; water 1 % vol): 2
- Polymorphic Form by XRPD ([4]; water 2 % vol): 2
- Polymorphic Form by XRPD ([4]; water 4 % vol): 1
- Polymorphic Form by XRPD ([4]; water 6 % vol): 1
- Polymorphic Form by XRPD ([4]; water 8 % vol): 1
- Polymorphic Form by XRPD ([5]; 10% water, 25 °C, 1 hr, trace of Form 2 remaining): 1^†
- Polymorphic Form by XRPD ([5]; 10% water, 25 °C, 3 hr, trace of Form 2 remaining): 1^†
- Polymorphic Form by XRPD ([5]; 10% water, 25 °C, 6 hr, trace of Form 2 remaining): 1^†
- Polymorphic Form by XRPD ([5]; 10% water, 25 °C, 24 hr, trace of Form 2 remaining): 1^†
- Polymorphic Form by XRPD ([5]; 10% water, 50 °C, 24 hr): 1
- Polymorphic Form by XRPD ([5]; 40% water, 25 °C, 1 hr): 2
- Polymorphic Form by XRPD ([5]; 40% water, 25 °C, 3 hr): 2
- Polymorphic Form by XRPD ([5]; 40% water, 25 °C, 6 hr): 2
- Polymorphic Form by XRPD ([5]; 40% water, 25 °C, 24 hr): 1
- Polymorphic Form by XRPD ([5]; 40% water, 50 °C, 1 hr): 2
- Polymorphic Form by XRPD ([5]; 40% water, 50 °C, 3 hr): 2
- Polymorphic Form by XRPD ([5]; 40% water, 50 °C, 6 hr): 2
- Polymorphic Form by XRPD ([5]; 40% water, 50 °C, 24 hr): 1
- Polymorphic Form by XRPD ([5]; 40% water, 65 °C, 1 hr): 2
- Polymorphic Form by XRPD ([5]; 40% water, 65 °C, 3 hr): 1
- Polymorphic Form by XRPD ([5]; 40% water, 65 °C, 6 hr): 1
- Polymorphic Form by XRPD ([5]; 40% water, 65 °C, 24 hr): 1
- Polymorphic Form by XRPD ([5]; 80% water, 25 °C, 1 hr): 2
- Polymorphic Form by XRPD ([5]; 80% water, 25 °C, 3 hr): 2
- Polymorphic Form by XRPD ([5]; 80% water, 25 °C, 6 hr): 2
- Polymorphic Form by XRPD ([5]; 80% water, 25 °C, 24 hr): 2
- Polymorphic Form by XRPD ([5]; 80% water, 50 °C, 1 hr): 2
- Polymorphic Form by XRPD ([5]; 80% water, 50 °C, 3 hr): 2
- Polymorphic Form by XRPD ([5]; 80% water, 50 °C, 6 hr): 2
- Polymorphic Form by XRPD ([5]; 80% water, 50 °C, 24 hr): 2
- Polymorphic Form by XRPD ([5]; 80% water, 65 °C, 1 hr): 2
- Polymorphic Form by XRPD ([5]; 80% water, 65 °C, 3 hr): 2
- Polymorphic Form by XRPD ([5]; 80% water, 65 °C, 6 hr): 2
- Polymorphic Form by XRPD ([5]; 80% water, 65 °C, 24 hr): 2
